Assay results: patent US6440974B2, “Compounds useful for inhibition of farnesyl protein transferase” (Schering Corporation, priority 1997, dated 2002)

Assays:
COS Cell = COS Cell IC50 (Cell-Based Assay); details: for IC50: cell-based assay
Method: (§1) FPT IC50 (inhibition of famesyl protein transferase, in vitro enzyme assay) and COS Cell IC50 (Cell-Based Assay) were determined following the assay procedures described in WO 95/10516, published Apr. 20, 1995. GGPIT IC50 (inhibition of geranylgeranyl protein transferase, in vitro enzyme assay), Cell Mat Assay, and anti-tumor activity (in vivo anti-tumor studies) could be determined by the assay procedures described in WO 95/10516. The disclosure of WO 95/10516 is incorporated herein by reference thereto.

[1] = biological target: farnesyl protein transferase (Homo sapiens, UniProt P49354+P49356); assay: FPT IC50 (inhibition of farnesyl protein transferase, in vitro enzyme assay); format: biochemical
Method: as §1

Human tumor cells = assay: Soft Agar Assay (anchorage-independent growth); format: cell-based
Method: Anchorage-independent growth is a characteristic of tumorigenic cell lines. Human tumor cells can be suspended in growth medium containing 0.3% agarose and an indicated concentration of a farnesyl transferase inhibitor. The solution can be overlayed onto growth medium solidified with 0.6% agarose containing the same concentration of farnesyl transferase inhibitor as the top layer. After the top layer is solidified, plates can be incubated for 10-16 days at 37° C. under 5% CO2 to allow colony outgrowth. After incubation, the colonies can be stained by overlaying the agar with a solution of MTT (3-[4,5-dimethylthiazol-2-yl]-2,5-diphenyltetrazolium bromide, Thiazolyl blue) (1 mg/mL in PBS). Colonies can be counted and the IC50's can be determined.

| SMILES | melting point | IC50 [1] | IC50 (Human tumor cells) | IC50 (COS Cell) | COS Cell, percent at given concentration (printed in the COS Cell IC50 column) (COS Cell; @ 10 nM) | IC50 (COS Cell; COS) |
| --- | --- | --- | --- | --- | --- | --- |
| O=C(C1CC2CCC1CO2)N1CCC(C2c3ncc(Br)cc3CCc3cc(Cl)cc(Br)c32)CC1 (single isomer, unassigned) [Example 30] | 151 to 159 °C (dec.) | 7.5 nM |  | 75 nM |  |  |
| O=C(CN1CC[S+]([O-])CC1)N1CCN(C2c3ccc(Cl)c(Br)c3CCc3cc(Br)cnc32)CC1 (centres unmarked) [Example 39] |  | 4.7 nM |  |  |  | 68 nM |
| O=C(C1CC2CCC1CO2)N1CCC(C2c3ncc(Br)cc3CCc3cc(Cl)cc(Br)c32)CC1 (single isomer, unassigned) [Example 29] | 152 to 164 °C (dec.) | 6.7 nM |  | 30 nM |  |  |
| O=C(CC1CCOCC1)N1CCN([C@@H]2c3ccc(Cl)cc3CCc3cc(Br)cnc32)CC1 [Example 33] |  | 45 nM |  |  |  |  |
| O=C(CN1CCOCC1)N1CCC([C@H]2c3ncc(Br)cc3CCc3cc(Cl)cc(Br)c32)CC1 [Example 36] |  | 3.1 nM |  |  |  |  |
| O=C(CC1=CCOCC1)N1CCC(C2c3ncc(Br)cc3CCc3cc(Cl)cc(Br)c32)CC1 (centres unmarked) [Example 3] | 110.3 to 113.9 °C | 6.1 nM |  |  |  |  |
| O=C(CN1CCSCC1)N1CCC([C@H]2c3ncc(Br)cc3CCc3cc(Cl)cc(Br)c32)CC1 [Example 37] |  | 4.9 nM |  |  |  | < 10 nM |

Now from value to compound, other results behind:

| melting point | IC50 [1] | IC50 (Human tumor cells) | SMILES | IC50 (COS Cell) | COS Cell, percent at given concentration (printed in the COS Cell IC50 column) (COS Cell; @ 10 nM) | IC50 (COS Cell; COS) |
| --- | --- | --- | --- | --- | --- | --- |
| 107 to 115 °C (dec.) | 42 nM |  | O=C(CC1CCCO1)N1CCC(C2c3ncc(Br)cc3CCc3cc(Cl)cc(Br)c32)CC1 (centres unmarked) [Example 7] |  |  |  |
| 141 to 151 °C (dec.) | 2.2 nM | 8 nM | O=C(CC1CCOCC1)N1CCC([C@@H]2c3c(Br)cc(Cl)cc3CCc3cc(Br)c[n+]([O-])c32)CC1 [Example 40] |  | 100% @ 10 |  |
| 111 to 124 °C (dec.) | 23 nM |  | O=C(CC1COCCO1)N1CCC(C2c3ncc(Br)cc3CCc3cc(Cl)cc(Br)c32)CC1 (centres unmarked) [Example 6] |  |  |  |
| 116 to 122 °C (dec.) | 2 nM |  | O=C(CC1CCCCO1)N1CCC(C2c3ncc(Br)cc3CCc3cc(Cl)cc(Br)c32)CC1 (centres unmarked) [Example 8] |  |  | 68 nM |
| 83.2 to 88.7 °C |  |  | O=C(CC1CCOCC1)N1CCC([C@H]2c3ncc(Br)cc3CCc3cc(Cl)cc(Br)c32)CC1 [Example 1] |  |  |  |
